Laboratory results published in patent publication US5034317A, “Enzyme controlled release system and organic conjugate reactant” (priority 1987, dated 1991).

Key:
Type in all cases: biochemical
[1] = target: Aspergillus oryzae Beta galactosidase (Aspergillus oryzae, UniProt Q2UCU3); experiment: Spectrofluorimetric detection of 1.0×10^-12 M enzyme with conjugate substrate
Description: Experimental conditions: Ten microliters of 1.0×10^-10 M Aspergillus oryzae Beta galactosidase (Cal Biochem) in 100 mM citrate phosphate, pH 5, with 0.05% w/v gelatin (Buffer A) was added to one milliliter of 1.6 mM compound 15 in Buffer A, yielding a final enzyme concentration of 1.0×10^-12 M. One half milliliter of this reaction mixture was monitored in a spectrofluorimeter in a two millimeter cuvette with instrument settings of 540 nm excitation, 580 emission and 5 nm slit widths. The signal was measured on a chart recorder at a speed of one centimeter per minute and at a sensitivity setting that gave fifteen percent deflection with 1.7×10^-7 M Sulforhodamine 101 in ethanol.

[2] = target: Aspergillus oryzae β-galactosidase (Aspergillus oryzae, UniProt Q2UCU3); experiment: Enzymatic hydrolysis of conjugate reactants by Aspergillus oryzae β-galactosidase (release of displaceable ligand)
Description: (§1) A major advantage provided by the organic conjugate compositions comprising the present invention is the selective ability to discriminate not only between different classes of enzymes, but also to distinguish the same enzyme obtained from different sources. […] Each of the individual, separately derived, beta-galactosidases were commercially obtained and empirically evaluated using the test protocol described previously in Example 6.

E. coli β-galactosidase = E. coli β-galactosidase (Escherichia coli, UniProt P00722); experiment: Enzymatic hydrolysis of conjugate reactants by E. coli β-galactosidase; conditions: 25° C., 10^-3 M, E. coli β-galactosidase 7.5 units, pH 7.0 (Table 6)
Description: as §1

[3] = target: T1, beef liver β-galactosidase (Bos taurus, UniProt Q58D55); experiment: Enzymatic hydrolysis of conjugate reactants by beef liver β-galactosidase; conditions: beef liver β-galactosidase 0.66 units; for Measured Rate of Reaction: 25° C., 10^-3 M
T1 sequence (Q58D55 28-653): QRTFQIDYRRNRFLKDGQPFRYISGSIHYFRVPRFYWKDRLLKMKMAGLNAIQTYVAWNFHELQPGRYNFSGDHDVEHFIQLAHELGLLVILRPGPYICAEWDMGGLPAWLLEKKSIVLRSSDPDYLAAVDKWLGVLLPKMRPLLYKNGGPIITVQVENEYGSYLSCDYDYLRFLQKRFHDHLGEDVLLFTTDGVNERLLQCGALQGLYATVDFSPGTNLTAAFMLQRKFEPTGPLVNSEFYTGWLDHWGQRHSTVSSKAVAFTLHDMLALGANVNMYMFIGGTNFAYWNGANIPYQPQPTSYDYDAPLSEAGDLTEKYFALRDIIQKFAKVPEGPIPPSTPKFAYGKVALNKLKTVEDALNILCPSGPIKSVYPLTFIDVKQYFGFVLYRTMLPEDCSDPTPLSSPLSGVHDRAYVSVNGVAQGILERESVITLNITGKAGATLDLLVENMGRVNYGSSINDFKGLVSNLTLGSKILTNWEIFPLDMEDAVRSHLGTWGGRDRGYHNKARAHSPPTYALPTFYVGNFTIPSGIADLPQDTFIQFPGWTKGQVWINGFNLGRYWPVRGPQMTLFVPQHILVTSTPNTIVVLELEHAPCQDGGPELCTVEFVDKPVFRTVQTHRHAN
Description: as §1

[4] = reactant 1.7 × 10^-5 M, temperature 36.5, 0.85 units Aspergillus oryzae β-galactosidase, pH 7.0 (Table 5)

Aspergillus oryzae β-galactosidase, sequence (Q2UCU3 19-1005): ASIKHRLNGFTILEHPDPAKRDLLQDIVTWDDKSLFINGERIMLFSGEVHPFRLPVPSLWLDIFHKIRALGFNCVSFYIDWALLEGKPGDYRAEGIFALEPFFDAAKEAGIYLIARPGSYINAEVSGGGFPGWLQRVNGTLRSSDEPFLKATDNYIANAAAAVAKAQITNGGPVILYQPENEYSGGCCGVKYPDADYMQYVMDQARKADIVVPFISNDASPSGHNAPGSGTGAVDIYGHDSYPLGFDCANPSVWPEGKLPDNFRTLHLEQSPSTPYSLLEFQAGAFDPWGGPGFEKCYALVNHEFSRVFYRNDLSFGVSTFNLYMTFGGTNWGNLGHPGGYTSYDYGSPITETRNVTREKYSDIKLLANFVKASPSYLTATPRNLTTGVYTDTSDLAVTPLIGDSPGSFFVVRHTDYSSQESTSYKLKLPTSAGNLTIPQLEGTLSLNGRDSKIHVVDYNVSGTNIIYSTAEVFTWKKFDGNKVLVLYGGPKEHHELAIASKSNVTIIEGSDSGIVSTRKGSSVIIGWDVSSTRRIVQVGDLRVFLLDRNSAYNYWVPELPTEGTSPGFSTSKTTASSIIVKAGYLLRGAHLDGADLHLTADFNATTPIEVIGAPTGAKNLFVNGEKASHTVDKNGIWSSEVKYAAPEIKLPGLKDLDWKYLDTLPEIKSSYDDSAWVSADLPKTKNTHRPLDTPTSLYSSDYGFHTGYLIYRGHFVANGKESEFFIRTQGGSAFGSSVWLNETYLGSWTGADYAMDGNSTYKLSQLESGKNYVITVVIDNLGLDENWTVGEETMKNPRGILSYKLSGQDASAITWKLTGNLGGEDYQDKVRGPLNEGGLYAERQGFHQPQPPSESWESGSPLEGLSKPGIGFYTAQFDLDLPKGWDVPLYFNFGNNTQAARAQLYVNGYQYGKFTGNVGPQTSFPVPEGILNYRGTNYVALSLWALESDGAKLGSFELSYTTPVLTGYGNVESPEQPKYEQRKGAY
Aspergillus oryzae Beta galactosidase, sequence (Q2UCU3 19-1005): as above
E. coli β-galactosidase, sequence (P00722 whole entry): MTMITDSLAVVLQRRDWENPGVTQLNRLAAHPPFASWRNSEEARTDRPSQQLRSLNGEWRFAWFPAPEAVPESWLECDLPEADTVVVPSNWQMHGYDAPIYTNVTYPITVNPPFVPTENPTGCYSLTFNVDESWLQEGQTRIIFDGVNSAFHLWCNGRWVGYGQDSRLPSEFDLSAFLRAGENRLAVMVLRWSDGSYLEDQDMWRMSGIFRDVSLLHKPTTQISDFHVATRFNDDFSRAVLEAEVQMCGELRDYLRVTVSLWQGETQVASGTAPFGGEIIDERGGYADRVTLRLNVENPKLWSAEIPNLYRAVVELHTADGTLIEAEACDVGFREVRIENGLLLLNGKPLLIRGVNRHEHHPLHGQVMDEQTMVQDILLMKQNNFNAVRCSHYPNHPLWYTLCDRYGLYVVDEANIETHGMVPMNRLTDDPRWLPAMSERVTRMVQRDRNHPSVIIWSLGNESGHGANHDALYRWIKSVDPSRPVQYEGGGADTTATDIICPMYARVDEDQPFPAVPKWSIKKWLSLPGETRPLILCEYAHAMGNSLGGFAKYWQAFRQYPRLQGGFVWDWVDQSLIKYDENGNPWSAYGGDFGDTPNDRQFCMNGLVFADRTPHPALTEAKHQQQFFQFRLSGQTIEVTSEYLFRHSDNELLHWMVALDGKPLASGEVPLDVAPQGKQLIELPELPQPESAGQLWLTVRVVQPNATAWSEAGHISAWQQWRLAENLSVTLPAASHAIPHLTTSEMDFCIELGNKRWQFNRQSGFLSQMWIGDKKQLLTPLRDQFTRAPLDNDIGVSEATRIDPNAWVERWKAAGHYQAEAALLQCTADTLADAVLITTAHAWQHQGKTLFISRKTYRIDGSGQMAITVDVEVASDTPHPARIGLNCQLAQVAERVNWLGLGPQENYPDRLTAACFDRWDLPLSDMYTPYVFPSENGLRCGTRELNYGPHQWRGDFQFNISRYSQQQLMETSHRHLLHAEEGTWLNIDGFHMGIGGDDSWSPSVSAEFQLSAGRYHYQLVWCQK

| SMILES | signal generated by the substrate solution alone (no enzyme) ([1]; 1.6 mM substrate in Buffer A pH 5, without enzyme, fluorescence over time) | increase in deflection (fluorescence signal) of the enzyme reaction mixture ([1]; 1.6 mM substrate, 1.0×10^-12 M enzyme, 100 mM citrate phosphate pH 5 with 0.05% gelatin, ten minute interval, 540 nm excitation, 580 emission) | Measured Rate of Reaction ([2]; 25° C., 10^-3 M, Asp. ory. β-galactosidase 0.5 units, pH 5.5 (Table 6)) [µmol/min] | Measured Rate of Reaction ([2]; 25° C., 10^-3 M, Asp. ory. β-galactosidase 0.85 units, pH 7.0 (Table 6)) [µmol/min] | Measured Rate of Reaction [2, 4] [µmol/min] | Measured Rate of Reaction ([2]; reactant 10^-3 M, temperature 25, 0.5 units Aspergillus oryzae β-galactosidase, pH 5.5 (Table 5)) [µmol/min] | Measured Rate of Reaction ([2]; reactant 10^-3 M, temperature 25, 0.85 units Aspergillus oryzae β-galactosidase, pH 7.0 (Table 5)) [µmol/min] | Measured Rate of Reaction ([2]; reactant 10^-3 M, temperature 25, 1.0 units Aspergillus oryzae β-galactosidase, pH 5.5 (Table 5)) [µmol/min] | Measured Rate of Reaction ([2]; reactant 10^-3 M, temperature 25, 4.2 units Aspergillus oryzae β-galactosidase, pH 7.0 (Table 5)) [µmol/min] | Measured Rate of Reaction (E. coli β-galactosidase) [µmol/min] | Measured Rate of Reaction ([3]; pH 5.5 (Table 6)) [µmol/min] | Measured Rate of Reaction ([3]; pH 7.0 (Table 6)) [µmol/min] | Measured Rate of Reaction ([2]; 36.5° C., 1.7 × 10^-5 M, Asp. ory. β-galactosidase 0.85 units, pH 7.0 (Table 6)) [µmol/min] | Measured Rate of Reaction (in words: hydrolysis after 4 days) ([3]; 36.5° C., 1.7 × 10^-5 M, pH 7.0, cell reads 'incomplete hydro-lysis after 4 days' (Table 6)) |
| --- | --- | --- | --- | --- | --- | --- | --- | --- | --- | --- | --- | --- | --- | --- |
| CCN(C(=O)Oc1ccc2nc3ccc(=O)cc-3oc2c1)c1cc(S(=O)(=O)N2CCN(C(=O)CCC(=O)O)CC2)ccc1O[C@@H]1O[C@H](CO)[C@H](O)[C@H](O)[C@H]1O [Compound 15] | No increase in the signal | one and one half percent increase in deflection | – | – | – | – | – | – | – | – | – | – | – | – |
| CCN(C(=O)Oc1ccc([N+](=O)[O-])cc1)c1cc(S(=O)(=O)N(C)C)ccc1O[C@@H]1O[C@H](CO)[C@H](O)[C@H](O)[C@H]1O [Compound 6, 2-[N-ethyl N-carbo (p-nitrophenoxy)]-4-dimethylamino sulfonyl phenyl-β-D-galactopyranoside] | – | – | 0.028 | 0.0091 | 0.0065 | 0.028 | 0.009 | 0.066 | 0.039 | 0.00006 | 0.0094 | 0.00075 | – | – |
| CCN(C(=O)Oc1ccc2nc3ccc(=O)cc-3oc2c1)c1cc(S(=O)(=O)N(C)C)ccc1O[C@@H]1O[C@H](CO)[C@H](O)[C@H](O)[C@H]1O [Compound 8, 2-[N-ethyl-N-carbo (resorufinyl)]-4-dimeehylamino sulfonylphenyl-β-D-galactopyranoside] | – | – | – | – | 0.0015 | – | – | – | – | – | – | – | 0.0015 | incomplete |
